Like-named read-outs stand apart in the source and are kept apart here.
Assay: CelltiterGlo viability cell assay
Format: cell-based
Conditions: human
Method in brief: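 Seed cells (e.g. MDA-MB-436 at 10000/well), add compound across 0.01 μM–30 μM, incubate 3 or 6 days, then read proliferation with CelltiterGlo. Normalize to DMSO.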

[1] = MDA-MB-436 breast cancer cells, MDA MB436, 3 day, read-out: viability Replicate 2
[2] = MDA-MB-436 breast cancer cells, MDA MB436, 3 day, read-out: viability Replicate 3
[3] = MDA-MB-436 breast cancer cells, MDA MB436, 3 day, read-out: viability Average
[4] = MDA-MB-436 breast cancer cells, MDA MB436, 3 day, read-out: viability Replicate 1
[5] = MDA-MB-436 breast cancer cells, MDA MB436, 6 day, read-out: viability Average
[6] = MDA-MB-436 breast cancer cells, MDA MB436, 6 day, read-out: viability Replicate 1
[7] = MDA-MB-436 breast cancer cells, MDA MB436, 6 day, read-out: viability Replicate 2
[8] = MDA-MB-436 breast cancer cells, MDA MB436, 6 day, read-out: viability Replicate 3
[9] = MDA-MB-436 cells, MDA MB436, 3 day, read-out: viability Replicate 1
[10] = MDA-MB-436 cells, MDA MB436, 3 day, read-out: viability Replicate 2
[11] = RPMI-8226 cells (multiple myeloma line), 8226, 3 day, read-out: viability Average
[12] = RPMI-8226 cells (multiple myeloma line), 8226, 3 day, read-out: viability Replicate 1
[13] = RPMI-8226 cells (multiple myeloma line), 8226, 3 day, read-out: viability Replicate 2
[14] = RPMI-8226 cells (multiple myeloma line), 8226, 3 day, read-out: viability Replicate 3
[15] = RPMI-8226 cells (multiple myeloma line), 8226, 6 day, read-out: viability Average
[16] = RPMI-8226 cells (multiple myeloma line), 8226, 6 day, read-out: viability Replicate 1
[17] = RPMI-8226 cells (multiple myeloma line), 8226, 6 day, read-out: viability Replicate 2
[18] = RPMI-8226 cells (multiple myeloma line), 8226, 6 day, read-out: viability Replicate 3
[19] = RPMI-8226 cells, 8226, 3 day, read-out: viability Average
[20] = RPMI-8226 cells, 8226, 3 day, read-out: viability Replicate 1
[21] = RPMI-8226 cells, 8226, 3 day, read-out: viability Replicate 2
[22] = RPMI-8226 cells, 8226, 3 day, read-out: viability Replicate 3
[23] = RPMI-8226 multiple myeloma cells, 8226, 3 day, read-out: viability Average

`COc1cc(OC)cc(-c2noc(N3CCN(C)C4(CCN(c5ccnc(C)c5)CC4)C3)n2)c1` [MRK-740] showed a viability at 3 day, 0.01 µM [1] of 98.8%, a viability at 3 day, 0.01 µM [2] of 92% and a viability at 3 day, 0.03 µM [3] of 105%. It also gave a viability at 3 day, 0.03 µM [4] of 124%, a viability at 3 day, 0.03 µM [1] of 99.1% and a viability at 3 day, 0.03 µM [2] of 92%. It also gave a viability at 3 day, 0.3 µM [3] of 94.8%, a viability at 3 day, 0.3 µM [2] of 92.8% and a viability at 3 day, 1 µM [3] of 104%. The viability at 3 day, 1 µM [4] was 114%, the viability at 3 day, 1 µM [1] was 105% and the viability at 3 day, 1 µM [2] was 93.4%. It also gave a viability at 3 day, 3 µM [3] of 104%, a viability at 3 day, 3 µM [4] of 120% and a viability at 3 day, 3 µM [1] of 100%. For the same compound, the viability at 3 day, 3 µM [2] was 91.2%, the viability at 3 day, 9.5 µM [3] was 94.9% and the viability at 3 day, 9.5 µM [4] was 108%. For the same compound, the viability at 3 day, 9.5 µM [1] was 89.3%, the viability at 3 day, 9.5 µM [2] was 87.6% and the viability at 3 day, 30 µM [3] was 51.5%. The viability at 3 day, 30 µM [4] was 60.8%, the viability at 3 day, 30 µM [1] was 50% and the viability at 3 day, 30 µM [2] was 43.6%. For the same compound, the viability at 6 day, 0.01 µM [5] was 103%, the viability at 6 day, 0.01 µM [6] was 97.8% and the viability at 6 day, 0.01 µM [7] was 106%. The viability at 6 day, 0.01 µM [8] was 107%, the viability at 6 day, 0.03 µM [5] was 102% and the viability at 6 day, 0.03 µM [6] was 99.8%. For the same compound, the viability at 6 day, 0.03 µM [7] was 100%, the viability at 6 day, 0.03 µM [8] was 106% and the viability at 6 day, 0.1 µM [5] was 104%. The viability at 6 day, 0.1 µM [6] was 105%, the viability at 6 day, 0.1 µM [7] was 101% and the viability at 6 day, 0.1 µM [8] was 106%. For the same compound, the viability at 6 day, 0.3 µM [5] was 107%, the viability at 6 day, 0.3 µM [6] was 108% and the viability at 6 day, 0.3 µM [7] was 105%. For the same compound, the viability at 6 day, 0.3 µM [8] was 109%, the viability at 6 day, 1 µM [5] was 112% and the viability at 6 day, 1 µM [6] was 109%. For the same compound, the viability at 6 day, 1 µM [7] was 116%, the viability at 6 day, 1 µM [8] was 111% and the viability at 6 day, 3 µM [5] was 113%. It also gave a viability at 6 day, 3 µM [6] of 115%, a viability at 6 day, 3 µM [7] of 112% and a viability at 6 day, 3 µM [8] of 112%. It also gave a viability at 6 day, 9.5 µM [5] of 70.8%, a viability at 6 day, 9.5 µM [6] of 69.6% and a viability at 6 day, 9.5 µM [7] of 71%. It also gave a viability at 6 day, 9.5 µM [8] of 71.9%, a viability at 6 day, 30 µM [5] of 35.6% and a viability at 6 day, 30 µM [6] of 34.7%. For the same compound, the viability at 6 day, 30 µM [7] was 35.7%, the viability at 6 day, 30 µM [8] was 36.5% and the viability at 3 day, 0.1 µM (MDA-MB-436 cells, MDA MB436, 3 day, read-out: viability Average) was 105%. The viability at 3 day, 0.1 µM [9] was 123%, the viability at 3 day, 0.1 µM [10] was 102% and the viability at 3 day, 0.1 µM (MDA-MB-436 cells, MDA MB436, 3 day, read-out: viability Replicate 3) was 90.1%. The viability at 3 day, 0.3 µM [9] was 91.5%, the viability at 3 day, 0.3 µM [10] was 100% and the viability at 3 day, 9.5 µM [11] was 98.3%. It also gave a viability at 3 day, 9.5 µM [12] of 105%, a viability at 3 day, 9.5 µM [13] of 96.6% and a viability at 3 day, 9.5 µM [14] of 93.4%. For the same compound, the viability at 3 day, 30 µM [11] was 54.9%, the viability at 3 day, 30 µM [12] was 74.2% and the viability at 3 day, 30 µM [13] was 34.5%. The viability at 3 day, 30 µM [14] was 56%, the viability at 6 day, 0.01 µM [15] was 102% and the viability at 6 day, 0.01 µM [16] was 101%. For the same compound, the viability at 6 day, 0.01 µM [17] was 102%, the viability at 6 day, 0.01 µM [18] was 102% and the viability at 6 day, 0.03 µM [15] was 101%. It also gave a viability at 6 day, 0.03 µM [16] of 100%, a viability at 6 day, 0.03 µM [17] of 101% and a viability at 6 day, 0.03 µM [18] of 102%. It also gave a viability at 6 day, 0.1 µM [15] of 100%, a viability at 6 day, 0.1 µM [16] of 96.9% and a viability at 6 day, 0.1 µM [17] of 102%. It also gave a viability at 6 day, 0.1 µM [18] of 102%, a viability at 3 day, 0.01 µM [19] of 98.4% and a viability at 3 day, 0.01 µM [20] of 97.7%. For the same compound, the viability at 3 day, 0.01 µM [21] was 100%, the viability at 3 day, 0.01 µM [22] was 97.6% and the viability at 3 day, 0.03 µM [19] was 99.5%. The viability at 3 day, 0.03 µM [20] was 97.9%, the viability at 3 day, 0.03 µM [21] was 100% and the viability at 3 day, 0.03 µM [22] was 100%. For the same compound, the viability at 3 day, 0.1 µM [23] was 101%, the viability at 3 day, 0.1 µM (RPMI-8226 multiple myeloma cells, 8226, 3 day, read-out: viability Replicate 1) was 99.2% and the viability at 3 day, 0.1 µM (RPMI-8226 multiple myeloma cells, 8226, 3 day, read-out: viability Replicate 2) was 101%. It also gave a viability at 3 day, 0.1 µM (RPMI-8226 multiple myeloma cells, 8226, 3 day, read-out: viability Replicate 3) of 103% and a viability at 3 day, 0.3 µM [23] of 102%.

— publication PMC6917776, “Discovery of a chemical probe for PRDM9” (Nature Communications, 2019)
